Laboratory results: the supplement of paper PMC6045584
± gives the standard deviation of the averaged measurements.

Legend:
[1] = compound: C[C@@H](Oc1cc(-c2cnn(C3CCNCC3)c2)cnc1N)c1c(Cl)ccc(F)c1Cl; test: surviving fraction relative to DMSO-only wells; higher = less growth inhibition; details: exposure time: 5 days
Summary of the method: (§1)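 In 384-well plates, 250–500 log-phase tumour cells per well were given 24 hours before five days of continuous exposure to inhibitors at 0.5, 1, 5, 10, 50, 100, 500 and 1000 nM. Surviving fraction is luminescence from CellTiter-Glo, normalised to the median of wells containing DMSO alone. Reading took place after 10 minutes at room temperature.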

MLN-4924 = compound: NS(=O)(=O)OC[C@@H]1C[C@@H](n2ccc3c(N[C@H]4CCc5ccccc54)ncnc32)C[C@@H]1O [MLN-4924]; test: as above; details: exposure time: 5 days
Summary of the method: as §1

Test System	surviving fraction ([1]; 0.5 nM)	surviving fraction ([1]; 1 nM)	surviving fraction ([1]; 50 nM)	surviving fraction ([1]; 100 nM)	surviving fraction ([1]; 500 nM)	surviving fraction ([1]; 1000 nM)	surviving fraction (MLN-4924; 0.5 nM)	surviving fraction (MLN-4924; 1 nM)	surviving fraction (MLN-4924; 5 nM)	surviving fraction (MLN-4924; 10 nM)	surviving fraction (MLN-4924; 50 nM)	surviving fraction (MLN-4924; 100 nM)	surviving fraction (MLN-4924; 500 nM)	surviving fraction (MLN-4924; 1000 nM)	surviving fraction ([1]; 5 nM)	surviving fraction ([1]; 10 nM)
MG63 BONE	0.898 ± 0.011	0.912 ± 0.016	0.91 ± 0.029	0.827 ± 0.023	0.711 ± 0.02	0.607 ± 0.004	1.03 ± 0.057	1.02 ± 0.046	1.07 ± 0.042	1.13 ± 0.054	0.4 ± 0.058	0.031 ± 0.0046	0.0287 ± 0.005	0.0287 ± 0.0023	–	–
MHM BONE	0.982 ± 0.041	0.991 ± 0.02	–	0.977 ± 0.011	0.905 ± 0.018	0.817 ± 0.012	0.973 ± 0.011	0.995 ± 0.024	1.04 ± 0.035	1.09 ± 0.038	1.37 ± 0.02	1.36 ± 0.015	0.39 ± 0.042	0.286 ± 0.015	0.991 ± 0.023	0.993 ± 0.023
NCIH441 LUNG	0.999 ± 0.039	0.982 ± 0.03	0.996 ± 0.046	0.885 ± 0.026	0.885 ± 0.11	0.652 ± 0.079	1.08 ± 0.077	1.15 ± 0.099	1.11 ± 0.087	1.12 ± 0.03	1.01 ± 0.051	0.846 ± 0.11	0.431 ± 0.033	0.414 ± 0.022	0.956 ± 0.045	0.998 ± 0.068
NOS1 BONE	0.889 ± 0.05	0.856 ± 0.046	1.17 ± 0.06	0.988 ± 0.04	0.742 ± 0.055	0.401 ± 0.026	0.988 ± 0.11	1.02 ± 0.11	1.23 ± 0.23	1.29 ± 0.21	1.22 ± 0.1	1.04 ± 0.14	0.637 ± 0.083	0.506 ± 0.033	–	0.929 ± 0.1
NY BONE	0.948 ± 0.02	0.9253 ± 0.0076	0.9303 ± 0.0083	0.885 ± 0.022	0.701 ± 0.03	0.524 ± 0.018	1.05 ± 0.024	1.03 ± 0.02	1.18 ± 0.036	1.2 ± 0.04	0.82 ± 0.073	0.48 ± 0.0085	0.289 ± 0.0061	0.232 ± 0.0095	0.959 ± 0.0089	0.9633 ± 0.0086
OS25HAL BONE	0.913 ± 0.013	–	0.969 ± 0.017	0.937 ± 0.016	0.813 ± 0.1	0.285 ± 0.043	1.05 ± 0.029	1.05 ± 0.017	1.11 ± 0.034	0.982 ± 0.02	0.773 ± 0.041	0.533 ± 0.06	0.181 ± 0.01	0.102 ± 0.016	0.92 ± 0.015	0.9 ± 0.014
OSHN BONE	0.908 ± 0.013	0.9047 ± 0.0064	0.992 ± 0.023	0.971 ± 0.018	0.868 ± 0.013	0.189 ± 0.029	1.09 ± 0.016	1.079 ± 0.01	1.15 ± 0.026	1.087 ± 0.0023	0.733 ± 0.018	0.565 ± 0.045	0.274 ± 0.028	0.258 ± 0.054	0.91 ± 0.0079	0.9 ± 0.01
PCI30 HEADNECK	0.959 ± 0.036	–	1.06 ± 0.076	1.11 ± 0.046	0.679 ± 0.039	0.513 ± 0.016	1.01 ± 0.028	1.01 ± 0.072	1.04 ± 0.023	0.939 ± 0.027	0.724 ± 0.028	0.701 ± 0.056	0.414 ± 0.015	0.377 ± 0.019	1.07 ± 0.058	–
RDES SOFT TISSUE	0.735 ± 0.13	0.716 ± 0.093	1.02 ± 0.19	0.926 ± 0.17	1.26 ± 0.02	0.127 ± 0.023	1.24 ± 0.12	1.11 ± 0.22	1.29 ± 0.17	1.26 ± 0.081	0.952 ± 0.018	0.687 ± 0.067	0.0467 ± 0.0025	0.0413 ± 0.0021	0.832 ± 0.028	0.69 ± 0.075
S68 BREAST	0.733 ± 0.09	0.819 ± 0.31	–	0.847 ± 0.16	0.567 ± 0.19	0.398 ± 0.084	0.837 ± 0.21	0.964 ± 0.11	0.764 ± 0.18	1.07 ± 0.19	0.6 ± 0.074	0.326 ± 0.05	0.172 ± 0.024	0.105 ± 0.007	–	0.838 ± 0.19
SAOS2 BONE	0.7737 ± 0.0011	0.866 ± 0.018	1.06 ± 0.08	0.971 ± 0.046	0.319 ± 0.012	0.164 ± 0.012	1.14 ± 0.096	1.1 ± 0.082	1.13 ± 0.057	1.1 ± 0.069	0.313 ± 0.03	0.095 ± 0.0095	0.038 ± 0.0017	0.0377 ± 0.0015	–	0.874 ± 0.036
